Test results as given in patent US20110224197A1, “PYRIMIDINES AND PYRIDINES USEFUL AS INHIBITORS OF PROTEIN KINASES” (Vertex Pharmaceuticals Incorporated, priority 2008, published 2011).

Columns and labels:
[1] = tested on: β-catenin; assay: β-catenin in brain, Post Stroke Model II; type: in vivo, rat; conditions: all doses
Description: To track the activity of Compound I-37 in the CNS of rats subjected to MCAO, brains were removed and protein lysate was obtained (as described herein) from both vehicle treated and compound treated animals at the termination of the study. Lysates were analyzed by Western blot and probed for GSK-3α/β pTYR levels.
Protein lysate is obtained from the brains of all vehicle and compound-treated animals and is processed for biomarker analysis of GSK3α/β pTYR and β-catenin by Western blot assay to ensure compound activity on the target.

[2] = tested on: spinal cord injury model; assay: Spinal Cord Injury Model; conditions: in vivo
Description: Compound I-37 was tested in a spinal cord injury model similar to the one described in Dill, et al, (2008) “Inactivation of Glycogen Synthase Kinase 3 Promotes Axonal Growth and Recover in CNS” The Journal of Neuroscience, 28(36): 8914-8928.

[3] = tested on: Middle Cerebral Artery Occlusion in adult male Wistar rats; assay: Post Stroke Recovery Model II (MCA electrocoagulation, behavioral tests); type: in vivo, rat
From the text: Adult male Wistar rats are pre-trained on a battery of behavioral tests including: tray reach, gridwalk, forelimb asymmetry (cylinder bracing), forelimb inhibition (swim test) (see below for detailed description of tests). Following pre-stroke behavioral assessment, the rats received surgery, during which a stroke is induced. The rats are pseudo-randomly divided into 5 equal groups (n=12) ensuring an equal number of right and left strokes within each treatment group. The first group receives sham surgery with vehicle as treatment. Administration of the test compound and vehicle (dose, route, timing) is determined by the sponsor. The core body temperature is maintained at 37° C. (+/−1°).
Following surgery, all animals are behaviorally assessed 1, 7, and 14 d post-stroke. At the conclusion of behavioral assessment, all rats undergo an MRI to determine infarct volume. Group behavioral performance and stroke volume are compared between groups using one way analysis of variance to determine therapeutic benefit of the compound in rate and extent of recovery of function following MCAO stroke.
Each animal is weighed (average weights were 340 g) and then anesthetized with isoflurane (4% isoflurane carried on 21/min medical grade oxygen to induce surgical plane and then 2% with 2 l/min oxygen to maintain a surgical plane). Following induction of anesthesia each rat is individually marked with an ear-punch and administered a subcutaneous dose of buprenorphine (0.025 mg/kg). Rectal temperature is monitored and maintained at 37° C.+/−1° C. for the duration of the surgery and until the rat is awake and mobile (approximately 3 hr).
The rat is then placed into a stereotaxic apparatus positioned such that the lateral aspect of the head was facing up. The skin between the eye […] and ear is shaved and washed with surgical antiseptic scrub. A vertical incision is made midway between the right orbit and external auditory canal. The underlying temporalis muscle is incised, detached from the skull and retracted with care to preserve the facial nerve. Two sutures hold the temporal muscle away from the lateral aspect of the skull. A craniotomy is performed from the posterior zygoma and along the temporal ridge of the cranium extending ventrally to expose the middle cerebral artery (MCA) and olfactory tract. The dura is opened, and the base of the MCA and the anterior portion of the first branch is electrocoagulated ventral to the olfactory tract, resulting in infarction of the right dorsolateral cerebral cortex.
Time at which stroke occurred is noted upon completion of the electrocoagulation of the MCA. Once bleeding is controlled, the temporal muscle is replaced and the skin sutured. The rat is then removed from the stereotaxic apparatus and moved to the recovery room. A second subcutaneous dose of buprenorphine (0.025 mg/kg) is administered along with 2 cc of Ringers solution. Water, wet rat chow mash, and a warming blanket under 1/2 the cage is made available while in the recovery room. Once the rat is awake and seen to be eating and drinking, it is moved back into its cage in the animal colony.
Forepaw use is measured with a procedure that is adapted from the method devised by Whishaw, O'Connor, and Dunnett (1986). Each animal is food-restricted such that feeding time occurs after testing each day. The animals are placed in test cages (10×18×10 cm high) with floors and fronts constructed of 2-mm bars, 9 mm apart edge to edge. […]

With `Cc1nc(-c2ccccc2Cl)nc(Nc2n[nH]c3ncc(F)cc23)c1C` [Compound I-37, N-(2-(2-chlorophenyl)-5,6-dimethylpyrhnidin-4-yl)-5-fluoro-1H-pyrazolo[3,4-b]pyridin-3-amine] the “induction of β-catenin” value [1] was “no induction”, the functional recovery [2] was “did not appear to improve functional recovery” and the “Forelimb inhibition (swimming test) deficit” value ([3]; 7 and 14 days after stroke) was “significantly ameliorated this deficit”. The Gridwalk deficit ([3]; 7 and 14 days after stroke) was “significantly ameliorated this deficit”, the “Tray reaching deficit compared with vehicle treatment” value ([3]; 7 and 14 days after stroke) was “significantly ameliorated this deficit” and the “Forepaw asymmetry (cylinder test) deficit” value ([3]; low dose, 14 days after stroke) was “significantly ameliorated this deficit”. The Adhesive removal test ([3]; rat, in vivo) was “did not show significant effect”.
